Assay results from the supplement of paper PMC11451515.

Tested on: P12-Ichikawa
Assay: cell viability relative to DMSO control; higher = less cytotoxic
Settings: 48 h
Method in brief: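 NOMO1 or SEM (500 cells/well) or P12-Ichikawa (1000 cells/well) leukemia cells were adapted for at least four passages in each medium. They were seeded in 1536-well plates (5 μl) and pin-dosed with library compounds in DMSO over an 11-point threefold series, 47 μM to 0.79 nM. CellTiter-Glo One luminescence was read after 48 h at 37°C. Viability is the per-plate percentage relative to DMSO wells, with cell-free wells as background.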

[1] = HPLM + 10% dialyzed FBS, 0.000781 µM
[2] = HPLM + 10% dialyzed FBS, 0.00234 µM
[3] = HPLM + 10% dialyzed FBS, 0.00702 µM
[4] = HPLM + 10% dialyzed FBS, 0.0211 µM
[5] = HPLM + 10% dialyzed FBS, 0.0632 µM
[6] = HPLM + 10% dialyzed FBS, 0.19 µM
[7] = HPLM + 10% dialyzed FBS, 0.569 µM
[8] = HPLM + 10% dialyzed FBS, 1.71 µM
[9] = HPLM + 10% dialyzed FBS, 5.12 µM
[10] = HPLM + 10% dialyzed FBS, 15.4 µM
[11] = HPLM + 10% dialyzed FBS, 46.1 µM
[12] = RPMI 5 mM glucose + 10% FBS, 0.000781 µM
[13] = RPMI 5 mM glucose + 10% FBS, 0.00234 µM
[14] = RPMI 5 mM glucose + 10% FBS, 0.00702 µM
[15] = RPMI 5 mM glucose + 10% FBS, 0.0211 µM
[16] = RPMI 5 mM glucose + 10% FBS, 0.0632 µM
[17] = RPMI 5 mM glucose + 10% FBS, 0.19 µM
[18] = RPMI 5 mM glucose + 10% FBS, 0.569 µM
[19] = RPMI 5 mM glucose + 10% FBS, 1.71 µM
[20] = RPMI 5 mM glucose + 10% FBS, 5.12 µM
[21] = RPMI 5 mM glucose + 10% FBS, 15.4 µM
[22] = RPMI 5 mM glucose + 10% FBS, 46.1 µM
[23] = RPMI 5 mM glucose + 10% dialyzed FBS, 0.000781 µM
[24] = RPMI 5 mM glucose + 10% dialyzed FBS, 0.00234 µM
[25] = RPMI 5 mM glucose + 10% dialyzed FBS, 0.00702 µM
[26] = RPMI 5 mM glucose + 10% dialyzed FBS, 0.0211 µM
[27] = RPMI 5 mM glucose + 10% dialyzed FBS, 0.0632 µM
[28] = RPMI 5 mM glucose + 10% dialyzed FBS, 0.19 µM
[29] = RPMI 5 mM glucose + 10% dialyzed FBS, 0.569 µM
[30] = RPMI 5 mM glucose + 10% dialyzed FBS, 1.71 µM
[31] = RPMI 5 mM glucose + 10% dialyzed FBS, 5.12 µM
[32] = RPMI 5 mM glucose + 10% dialyzed FBS, 15.4 µM
[33] = RPMI 5 mM glucose + 10% dialyzed FBS, 46.1 µM

| Structure (SMILES) | cell viability [1] [%] | cell viability [2] [%] | cell viability [3] [%] | cell viability [4] [%] | cell viability [5] [%] | cell viability [6] [%] | cell viability [7] [%] | cell viability [8] [%] | cell viability [9] [%] | cell viability [10] [%] | cell viability [11] [%] | cell viability [12] [%] | cell viability [13] [%] | cell viability [14] [%] | cell viability [15] [%] | cell viability [16] [%] | cell viability [17] [%] | cell viability [18] [%] | cell viability [19] [%] | cell viability [20] [%] | cell viability [21] [%] | cell viability [22] [%] | cell viability [23] [%] | cell viability [24] [%] | cell viability [25] [%] | cell viability [26] [%] | cell viability [27] [%] | cell viability [28] [%] | cell viability [29] [%] | cell viability [30] [%] | cell viability [31] [%] | cell viability [32] [%] | cell viability [33] [%] |
| --- | --- | --- | --- | --- | --- | --- | --- | --- | --- | --- | --- | --- | --- | --- | --- | --- | --- | --- | --- | --- | --- | --- | --- | --- | --- | --- | --- | --- | --- | --- | --- | --- | --- |
| CC(C)C[C@H](NC(=O)CNC(=O)c1cc(Cl)ccc1Cl)B(O)O | 91 | 98.3 | 99.7 | 14.2 | 106 | 78 | 6.35 | 5.51 | 4.53 | 3 | 2.23 | 78.7 | 89 | 85.8 | 11.8 | 102 | 73.1 | 6.15 | 5.14 | 4.49 | 3.12 | 1.86 | 88.7 | 88.6 | 91.2 | 21.6 | 100 | 88 | 6.52 | 5.26 | 4.56 | 2.86 | 1.63 |
| COc1cc2nc(-c3cc(F)ccc3O)nc(N[C@@H]3CNC[C@H]3C(C)(C)O)c2cc1OC | 104 | 104 | 106 | 110 | 110 | 109 | 114 | 120 | 80.5 | 76.6 | 56.5 | 108 | 104 | 111 | 111 | 118 | 128 | 119 | 129 | 83.5 | 67.8 | 44.3 | 116 | 123 | 117 | 113 | 121 | 116 | 124 | 115 | 69.6 | 48.5 | 37.5 |
| CN1CCN2c3ncccc3Cc3ccccc3C2C1 (stereo not drawn) | 122 | 119 | 113 | 120 | 122 | 115 | 114 | 119 | 114 | 108 | 111 | 134 | 118 | 124 | 132 | 129 | 125 | 135 | 121 | 117 | 112 | 101 | 125 | 118 | 113 | 120 | 121 | 118 | 128 | 115 | 111 | 108 | 100 |
| CN(C)CCOc1ccc(-c2nc(-c3ccncc3)c(-c3ccc4c(c3)CC/C4=N\O)[nH]2)cc1 | 103 | 107 | 106 | 100 | 103 | 109 | 106 | 100 | 93.7 | 90.6 | 65.9 | 113 | 108 | 109 | 110 | 109 | 107 | 109 | 103 | 94.5 | 96.4 | 65.6 | 109 | 104 | 114 | 101 | 106 | 105 | 109 | 104 | 96.8 | 84 | 66.7 |
| COc1cc2nc(N3CCN(C(=O)C4CCCO4)CC3)nc(N)c2cc1OC (stereo not drawn) | 112 | 123 | 123 | 127 | 130 | 130 | 131 | 124 | 127 | 139 | 136 | – | – | – | – | – | – | – | – | – | – | – | – | – | – | – | – | – | – | – | – | – | – |
| NC(=O)c1cccc2nc(-c3ccc([C@H]4CCCN4)cc3F)[nH]c12 | 99.9 | 110 | 105 | 114 | 115 | 111 | 120 | 114 | 105 | 95.8 | 84.2 | 97 | 97.6 | 100 | 105 | 114 | 113 | 123 | 112 | 109 | 103 | 70.1 | 99.5 | 105 | 110 | 119 | 109 | 119 | 121 | 116 | 120 | 107 | 65.1 |
| c1ccc(CNc2nc(N3CCOc4ccccc43)nc3c2CCCC3)cc1 | 101 | 102 | 107 | 108 | 117 | 99.5 | 128 | 115 | 109 | 107 | 107 | 102 | 99.9 | 100 | 106 | 105 | 110 | 111 | 106 | 108 | 100 | 96.9 | 102 | 112 | 107 | 114 | 110 | 105 | 110 | 116 | 105 | 103 | 104 |
| CCC(=O)N[C@H]1CC[C@H](C(=O)N(C)c2ccc(-c3nc4ccccc4o3)cc2)C1 | 95.4 | 97.1 | 101 | 102 | 100 | 99.5 | 110 | 103 | 107 | 104 | 84.4 | 92.3 | 95.4 | 96.4 | 91.3 | 101 | 105 | 108 | 95.6 | 97.5 | 100 | 54.8 | 89.9 | 92.2 | 91.5 | 98.3 | 94 | 99.7 | 98.2 | 109 | 99 | 94.6 | 65.1 |
| COc1ccc([C@@H]2CC(=O)c3c(O)cc(O[C@@H]4O[C@H](CO[C@@H]5O[C@@H](C)[C@H](O)[C@@H](O)[C@H]5O)[C@@H](O)[C@H](O)[C@H]4O)cc3O2)cc1O | 97.9 | 99 | 116 | 118 | 113 | 116 | 107 | 116 | 114 | 111 | 116 | 96.2 | 101 | 110 | 113 | 107 | 114 | 111 | 106 | 107 | 116 | 109 | 104 | 111 | 109 | 108 | 114 | 111 | 113 | 111 | 108 | 115 | 109 |
| COCCOc1nc(-c2ccc(Cl)c(Cl)c2)n(-c2ccc(NC(=O)CCl)cc2)n1 | 96.6 | 97.3 | 102 | 103 | 103 | 106 | 99.1 | 104 | 84.4 | 99.8 | 98.5 | 89.4 | 101 | 90.1 | 104 | 98.9 | 101 | 93.4 | 107 | 79.7 | 79.9 | 88.7 | 84.1 | 92.2 | 86.1 | 94.6 | 91.2 | 93.7 | 98.9 | 86.4 | 76 | 77.8 | 86.9 |
| COC1=CC=C(C=C1O)C/2=C/C(=O)C3=C(O2)C=C(O)C=C3O | 96.2 | 95.5 | 96.4 | 97 | 95.2 | 90.3 | 86.4 | 90.8 | 86.7 | 91.9 | 88.4 | 98 | 92.1 | 95.3 | 98.9 | 104 | 92.5 | 90.4 | 87.5 | 87.3 | 91.3 | 89.9 | 86.8 | 83.9 | 81.7 | 76.9 | 78.1 | 76.5 | 77.9 | 79.5 | 79.5 | 80.7 | 80.7 |
| C[S+](=O)([O-])c1ccc(-c2cnc(N)c(C(=O)Nc3ccccc3)n2)cc1 | 99.6 | 104 | 107 | 107 | 117 | 119 | 118 | 118 | 114 | 88.4 | 87.2 | 103 | 119 | 111 | 112 | 123 | 122 | 116 | 121 | 114 | 76.9 | 80.5 | 104 | 117 | 120 | 120 | 121 | 115 | 124 | 114 | 117 | 72.6 | 69.7 |
| CN1\N=C(N)/C2=C[N]([C@@H]3O[C@H](CO[P](O)(O)=O)[C@@H](O)[C@H]3O)C4=C2C1=NC=N4 | 112 | 122 | 110 | 109 | 111 | 96.1 | 77.9 | 53 | 54 | 43.2 | 37.9 | 114 | 110 | 105 | 95.1 | 93.9 | 75.5 | 72 | 60.6 | 52.7 | 44.7 | 41.4 | 119 | 114 | 108 | 113 | 101 | 89.4 | 72.3 | 60.4 | 58.3 | 51 | 41.4 |
| O=C(Cc1ccc(-c2ccc(OCCN3CCOCC3)cc2)cn1)NCc1ccccc1 | 107 | 113 | 114 | 85.6 | 36.1 | 17.3 | 14 | 13.2 | 10.3 | 9.64 | 11.6 | 114 | 114 | 123 | 97 | 40 | 25.9 | 15.6 | 15.1 | 10.4 | 8.04 | 8.38 | 122 | 118 | 119 | 112 | 33.3 | 35 | 22.9 | 22.2 | 13.6 | 11.6 | 16.6 |
| OC(=O)C(CC/1=C/C(=O)NC2=CC=CC=C12)NC(=O)C3=CC=C(Cl)C=C3 (stereo not drawn) | 111 | 118 | 120 | 123 | 123 | 125 | 124 | 128 | 122 | 126 | 125 | 109 | 115 | 119 | 117 | 131 | 122 | 128 | 121 | 128 | 132 | 141 | 120 | 122 | 129 | 130 | 139 | 135 | 135 | 128 | 130 | 124 | 133 |
